Reference: US8476012B2, “Physiogenomic method for predicting metabolic and cardiovascular side effects of thiazolidinediones” (Genomas, Inc., priority 2008, dated 2013)

Key:
[1] = HbA1c level (efficacy indicator) in type 2 diabetes outpatients on thiazolidinedione therapy; format: in vivo, human; conditions: average by covariate; type 2 diabetes outpatients treated ≧4 months; from most recent medical records
Protocol: (§1) Outpatients with type 2 diabetes treated between February and June 2007 with rosiglitazone ([…]) or pioglitazone (n=33) for ≧4 months at the Joslin Diabetes Center affiliate of The Hospital of Central Connecticut (THOCC) in New Britain, Conn. were recruited as volunteer subjects. There were no exclusionary criteria. Each subject provided informed written consent as approved by the THOCC Institutional Review Board.
Hemoglobin A1c: HbA1c levels were measured via ion exchange using the HPLC Variant II (BioRad Laboratories, Hercules Calif.).
(§2) Physiogenomic Analysis. Patients treated with rosiglitazone or pioglitazone were recruited from THOCC clinics and provided informed written consent as approved by the THOCC Institutional Review Board. For physiogenomic associations to HbA1c, body mass index and edema, genotype data were obtained on 88 patients, 55 on rosiglitazone and 33 on pioglitazone regimens. A standardized set of phenotypes were collected from the most recent medical records for each patient. Valid genotype data were obtained on the 88 patients. Extensive information on co-medications and disease history were also collected to control for environmental effects.
(§3) HbA1c was selected as an indicator for efficacy, and body mass index and edema as indicators of undesired side effect. […] The phenotypes were analyzed for covariate dependence on age, gender, ethnicity, and treatment.

[2] = set-up: species or system human; conditions: in vivo
Description: as §1
Clinical Assessment. Patient characteristics included age, height, weight, body mass index, and the presence/absence of edema as recorded by a physician.
as §2, with “Extensive information on co-medications and disease history were also collected to control for environmental effects.” left out
as §3

[3] = suggested by various meta analyses; since disputed; cited from earlier work

Row | BMI [2] | SMILES | HbA1c [1] [%] | risk for myocardial infarction (MI) [3]
1 | 33.4 | CCc1ccc(CCOc2ccc(CC3SC(=O)NC3=O)cc2)nc1 (stereo not drawn) [pioglitazone] | 7.4 | does not
2 | 33.7 | CN(CCOc1ccc(CC2SC(=O)NC2=O)cc1)c1ccccn1 (stereo not drawn) [rosiglitazone] | 7.4 | may increase the risk for myocardial infarction
